Experimental data as given in PubChem BioAssay (NCI).
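Following 48 hours of exposure in 96-well plates, responses at five concentrations were used to interpolate endpoints linearly. GI50: concentration for 50% inhibition of growth. The concentration for full growth arrest is given as TGI.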

Key:
Assay in all cases: NCI anticancer screen, dose series, 48 h
[1] = tested on: SK-MEL-5 melanoma
[2] = tested on: UO-31 renal
[3] = tested on: SW-620 colon
[4] = tested on: SF-268 CNS
[5] = tested on: NCI-H226 lung
[6] = tested on: SNB-19 CNS
[7] = tested on: HL-60(TB) leukemia
[8] = tested on: LOX IMVI melanoma
[9] = tested on: NCI-H460 lung
[10] = tested on: HOP-92 NSCLC

| Compound | TGI [1] [µM] | TGI [2] [µM] | TGI [3] [µM] | TGI [4] [µM] | TGI [5] [µM] | TGI [6] [µM] | TGI [7] [µM] | TGI [8] [µM] | TGI [9] [µM] | TGI [10] [µM] | GI50 [1] [µM] | GI50 [2] [µM] | GI50 [3] [µM] | GI50 [4] [µM] | GI50 [5] [µM] | GI50 [6] [µM] | GI50 [7] [µM] | GI50 [8] [µM] | GI50 [9] [µM] |
| --- | --- | --- | --- | --- | --- | --- | --- | --- | --- | --- | --- | --- | --- | --- | --- | --- | --- | --- | --- |
| COC(=O)OC[C@H]1O[C@@H](n2cc(C)c(=O)[nH]c2=O)CC1OC(=O)OC (some centres not stated) | > 100 | > 100 | > 100 | > 100 | > 100 | > 100 | > 100 | > 100 | > 100 | – | – | – | – | – | – | – | – | – | – |
| Oc1ccc(-c2cc(-c3c(O)cc(O)cc3O)on2)cc1 | > 100 | > 100 | > 100 | > 100 | > 100 | > 100 | > 100 | > 100 | > 100 | – | – | – | – | – | – | – | – | – | – |
| O=S(=O)(O)c1cc(Cl)c(O)c2ncc(Cl)cc12 | > 100 | > 100 | > 100 | – | > 100 | > 100 | – | > 100 | > 100 | > 100 | – | – | – | – | – | – | – | – | – |
| COC(=O)C(=O)C(C(=O)C(=O)Nc1ccccc1C(=O)OC)c1nc2ccc(C(=O)c3ccccc3)cc2[nH]c1=O (configuration not stated) | > 100 | > 100 | > 100 | > 100 | > 100 | – | > 100 | > 100 | > 100 | > 100 | – | – | – | – | – | – | – | – | – |
| [N-]=N[N+]#I1OC(C(F)(F)F)(C(F)(F)F)c2ccccc21 | 4.36 | 23.7 | 40 | 27.9 | 54.1 | > 100 | 30.6 | 77.1 | – | 27 | – | – | – | – | – | – | – | – | – |
| O=c1c2cc([N+](=O)[O-])ccc2n2n1Cc1ccccc1CC2 | > 100 | > 100 | > 100 | > 100 | > 100 | > 100 | > 100 | > 100 | > 100 | – | – | – | – | – | – | – | – | – | – |
| COc1ccc(-n2c(CCCC(=O)O)nc3c2C(=O)c2ccccc2C3=O)cc1 | – | > 100 | > 100 | > 100 | – | > 100 | > 100 | > 100 | > 100 | > 100 | – | – | – | – | – | – | – | – | – |
| C1=C2SSC3=CC=C(SSc4ccc(s4)SSC4=CC=C(SSC(=C1)S2)S4)S3 | > 100 | > 100 | > 100 | > 100 | > 100 | > 100 | – | > 100 | > 100 | > 100 | – | – | – | – | – | – | – | – | – |
| c1ccc2[nH]c(-c3nc4ccccc4o3)nc2c1 | > 100 | > 100 | – | > 100 | > 100 | – | > 100 | > 100 | > 100 | > 100 | – | – | – | – | – | – | – | – | – |
| C=C(NC(=O)C(=C)NC(=O)c1csc(C2=NC3c4csc(n4)C4NC(=O)c5csc(n5)C(C(C)(O)C(C)O)NC(=O)C5CSC(=N5)/C(=C/C)NC(=O)C(C(C)O)NC(=O)c5csc(n5)C3(CC2)NC(=O)C(C)NC(=O)C(=C)NC(=O)C(=C)NC(=O)C(C(C)C)NC2C=Cc3c(C(C)O)cc(nc3C2O)C(=O)OC4C)n1)C(N)=O (configuration not stated) | > 100 | > 100 | > 100 | > 100 | 7.24 | 65.4 | – | > 61.3 | 59.7 | 40.1 | – | – | – | – | – | – | – | – | – |
| CCOC(=O)C(NCc1ccccc1)(NC(=O)c1ccccc1)C(F)(F)F (configuration not stated) | > 100 | > 100 | > 100 | > 100 | > 100 | > 100 | > 100 | > 100 | – | > 100 | – | – | – | – | – | – | – | – | – |
| CN(C)[C@@H]1C(=O)C(C(N)=O)=C(O)[C@@]2(O)C(=O)C3=C(O)c4c(O)cccc4C[C@H]3C[C@@H]12 | 3.63 | 4.08 | 9.84 | 3.23 | – | 4.47 | – | – | 6.48 | 5.19 | – | – | – | – | – | – | – | – | – |
| c1cnc2c(c1)-n1cccc1C1(CCOCC1)NN2 | > 100 | > 100 | > 100 | > 100 | > 100 | > 100 | > 100 | – | > 100 | > 100 | – | – | – | – | – | – | – | – | – |
| O=C(C=P(c1ccccc1)(c1ccccc1)c1ccccc1)C12CC3CC(CC(C3)C1)C2 | 28.8 | 27.7 | 34.9 | 41.6 | – | 27 | 27.1 | 41.5 | 31.3 | 43.2 | – | – | – | – | – | – | – | – | – |
| COc1c2cc(C(C)(C)C)cc1CSCc1cc(C(C)(C)C)cc(c1OC)CCCCC2 | > 50 | > 50 | > 50 | > 50 | > 50 | > 50 | > 50 | – | > 50 | – | – | – | – | – | – | – | – | – | – |
| Oc1c(Cl)c2nccnc2c2ccccc12 | > 100 | > 100 | > 100 | > 100 | > 100 | – | > 100 | – | > 100 | > 100 | – | – | – | – | – | – | – | – | – |
| COc1ccc2nc3ccc(OC)cc3c(S(=O)Cc3ccc([N+](=O)[O-])cc3)c2c1 (configuration not stated) | 31.8 | 12.9 | – | 47.5 | 45.6 | 52.3 | 6.97 | 34.7 | 67.4 | > 23.5 | – | – | – | – | – | – | – | – | – |
| CC(C)(C)C1CCC2c3c([nH]c4ccccc34)C3C(=O)N(c4cc(Br)cc(Br)c4)C(=O)C3C2C1 (configuration not stated) | > 100 | 46.2 | > 100 | – | 75.6 | – | 5.82 | > 100 | 74.2 | 8.82 | – | – | – | – | – | – | – | – | – |
| O=C(NCc1cn(Cc2cccc(Oc3ccccc3)c2)nn1)c1cccnc1Nc1ccccc1 | 28.3 | > 100 | > 100 | 37.5 | > 100 | > 100 | 19.5 | > 100 | 10.5 | – | 3.89 | 2.49 | 3.97 | 3.22 | 3.24 | 3.27 | 3.74 | 4.54 | 2.85 |
| O=C1Nc2ccccc2C(=O)OC(Cc2ccccc2)=Nc2ccccc21 | > 100 | > 100 | > 100 | > 100 | > 100 | > 100 | > 100 | > 100 | > 100 | – | – | – | – | – | – | – | – | – | – |
| Fc1cccc(F)c1C1SCC2=Nc3ccccc3CN21 (configuration not stated) | > 100 | > 100 | > 100 | – | – | > 100 | > 100 | > 100 | > 100 | > 100 | – | – | – | – | – | – | – | – | – |
| On1c(-c2ccccc2)c(-c2c(-c3ccccc3)n(O)c3ccccc23)c2ccccc21 | 50 | 53 | – | > 100 | 64.7 | > 100 | > 100 | 73.2 | 49.4 | – | – | – | – | – | – | – | – | – | – |
